The text below walks through data of publication PMC7470151, “Synthesis and evaluation of 2,4,5-trisubstitutedthiazoles as carbonic anhydrase-III inhibitors” (Journal of Enzyme Inhibition and Medicinal Chemistry, 2020).

Bounds are passed on as bounds.

Data set [1] deals with T1, Bovine carbonic anhydrase, isozyme III (Bos taurus, UniProt Q3SZX4).
T1 construct: purchased Biovar Ltd, Armenia
T1 sequence (Q3SZX4 1-260): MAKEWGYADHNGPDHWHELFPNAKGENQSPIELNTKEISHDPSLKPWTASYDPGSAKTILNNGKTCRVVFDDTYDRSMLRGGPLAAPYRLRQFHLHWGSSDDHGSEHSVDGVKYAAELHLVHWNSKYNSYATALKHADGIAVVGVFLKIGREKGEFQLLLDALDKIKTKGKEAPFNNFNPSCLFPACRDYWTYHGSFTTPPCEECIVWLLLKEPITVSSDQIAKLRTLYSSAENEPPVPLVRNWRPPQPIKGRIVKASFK
Briefly: Carbonic anhydrase-III inhibition assay by size exclusion Hummel–Dreyer method (HDM) chromatography. It counts as binding. The following applies: HDM size exclusion HPLC; 0.24 mM analyte in mobile phase; 10% acetonitrile, phosphate buffer pH 6.5; 37 °C; CA-III injected at three concentrations. As to the method: HPLC screening was conducted on the LC-2010A HT HPLC system, coupled with column temperature controller, degasser, auto sampler, and isocratic elution system, LC-solution software (to calculate peak area), Shimadzu Corporation, Kyoto, Japan. Back pressure was maintained around 6 MPA. A Phenomenex BioSep-SEC s2000, 300 × 7.8 mm column was used for size exclusion chromatography.
Bovine carbonic anhydrase, isozyme III (Biovar Ltd, Armenia) was stored at 0 °C in refrigerator until use. Enzyme was left for few minutes at room temperature before analysis. HPLC-grade methanol and acetonitrile (Fisher Scientific, Loughborough, UK) were used without further purification. NaH2PO4.H2O (Gainland, Deeside, UK), HCl (Carlo Erba, Italy), NaOH (Lonver, UK), and deionised water were used for the preparation of mobile phase. All the required chemicals for the synthesis of target compounds (12–16b) were procured either from Fisher Scientific, Loughborough, UK or Sigma-Aldrich, St. Louis, MO.
Each target compounds (12–16b) was dissolved in a mixture of acetonitrile: phosphate buffer, pH 6.5 (1:9 v/v) to obtain a final concentration of 0.24 mM. Subsequently, filtration and degassing by sonication were conducted for the mobile phase. Three different enzyme (CA-III) concentrations of […] were prepared from the stock solution (containing 0.865 mg in 10 mL of distilled water) by subsequent dilution method and injected separately in each run in the chromatographic system. All samples were used in duplicate. Vanillic acid was used as a positive control, and toluene was used as a negative control.
The mobile phase used for analysis was chosen according to the optimised conditions obtained, where 10% of organic modifier, 30 mM phosphate buffer (pH = 6.5) and 37 °C temperature was used. Column was pre-equilibrated with the mobile phase for 50 min. The flow rate of mobile phase was maintained at 1 mL/min during the run time. A wavelength of 230 nm (λmax) was selected for the analysis of all the tested compounds.
CA-III inhibitory activities of all the 17 target compounds (12–16b) as shown in Table 1 were carried out by using size exclusion HDM chromatography. The HDM chromatography was preferred over colorimetric assay of CA inhibitors, due to the susceptibility of the colorimetric methods to the intrinsic acidic or alkaline properties of analytes (inhibitors), including the lower catalytic activity of CA-III in CO2 hydration. Moreover, in HDM chromatographic method, the dilution effect of the mobile phase not only provides comparatively larger space for interaction between the macromolecule (CA-III) and analytes, but also lowers the probability of self-aggregation of macromolecules[35–37]^,[41]. The HDM was further optimised prior to use, where mobile phase was buffered to maintain the pH = 6.5 to mimic the physiological condition and to minimise the intrinsic properties of analytes. Moreover, acetonitrile (10%) was used to facilitate the elution of analytes (inhibitors) from the hydrophobic column as well as to prevent the adhesion of macromolecule to the stationary phase of the column. A constant optimised temperature of 37 °C was maintained throughout the chromatographic run, as the increase in temperature could not only influence the protein-ligand interaction but also affect the longevity of the column.
The chromatographic analysis by HDM is basically based on the measurement of the intensity of the formation of vacancy (negative) peak due to the subtraction of CA-III bound portion of analytes from the mobile phase. This method is also independent of the enzyme catalytic activity, thereby considered as more sensitive method for the estimation of inhibitory activities of analytes as compared to the colorimetric assay[35–37]^,[41]. Thus, weak inhibitors created weak vacancy peaks independent of the enzyme concentrations. […]

The compound `COC(=O)c1nc(N)sc1Cc1ccccc1` [Compound 16] displayed a Ki in data set [1] of more than 500 µM.

On to `COC(=O)c1nc(N)sc1-c1ccc(C)cc1` [Compound 13, Methyl-2-amino-5-(p-tolyl)thiazole-4-carboxylate], for which the melting point turned out to be 201 °C. In data set [1], this compound showed a Ki of more than 500 µM.

`COC(=O)c1nc(NC(=O)Nc2ccccc2)sc1Cc1ccccc1` [Compound 16b, Methyl-5-benzyl-2-(3-phenylureido)thiazole-4-carboxylate] returned a melting point of 226 °C. Further, in data set [1], the Ki was more than 500 µM.

`COC(=O)c1nc(NC(=O)Nc2ccccc2)sc1-c1ccc(S(C)(=O)=O)cc1` [Compound 14d, Methyl 5-(4-(methylsulfonyl)phenyl)-2-(3-phenylureido)thiazole-4-carboxylate]: the melting point is 143 °C. Moreover, in data set [1], the Ki is more than 500 µM.

Compound `Cc1ccc(-c2sc(N)nc2C(=O)O)cc1` [Compound 13a, 2-Amino-5-(p-tolyl)thiazole-4-carboxylic acid] returned a melting point of 236 °C. In data set [1], this compound came in with an inhibitory constant (Ki) of 18.9 µM.

For `COC(=O)c1nc(N)sc1-c1ccc(Cl)c([N+](=O)[O-])c1` [Compound 15], the Ki in data set [1] was more than 500 µM.

Compound `Cc1ccc(-c2sc(NC(=O)Nc3ccccc3)nc2C(=O)O)cc1` [Compound 13c, 2-(3-Phenylureido)-5-(p-tolyl)thiazole-4-carboxylic acid] came in with a melting point of 226 °C. Further, the Ki in data set [1] came out at 174 µM.

In turn, `COC(=O)c1nc(NC(=O)c2ccc([N+](=O)[O-])cc2)sc1-c1ccccc1` [Compound 12b, Methyl-2-(4-nitrobenzamido)-5-substituted-thiazole-4-carboxylate] displayed an inhibition constant Ki in data set [1] of more than 500 µM.

As for `CS(=O)(=O)c1ccc(-c2sc(N)nc2C(=O)O)cc1` [Compound 14a, 2-Amino-5-(4-(methylsulfonyl)phenyl)thiazole-4-carboxylic acid], the melting point is 238 °C. Further, the affinity in data set [1], expressed as Ki, was 86.6 µM.

`COC(=O)c1nc(N)sc1-c1ccccc1` [Compound 12] returned a Ki in data set [1] of more than 500 µM.

With `COc1ccc(C(=O)Nc2nc(C(=O)O)c(-c3ccc(S(C)(=O)=O)cc3)s2)cc1` [Compound 14c, 2-(4-Methoxybenzamido)-5-(4-(methylsulfonyl)phenyl)thiazole-4-carboxylic acid], the melting point stood at 174 °C. The Ki in data set [1] is 186 µM.

`Nc1nc(C(=O)O)c(-c2ccccc2)s1` [Compound 12a, 2-amino-5-phenylthiazole-4-carboxylic acid] showed a Ki in data set [1] of 0.5 µM.

As to `Nc1nc(C(=O)O)c(Cc2ccccc2)s1` [Compound 16a], the Ki in data set [1] was more than 500 µM.

`COC(=O)c1nc(NC(=O)Nc2ccccc2)sc1-c1ccc(C)cc1` [Compound 13b, Methyl-2-(3-phenylureido)-5-(p-tolyl)thiazole-4-carboxylate] had a melting point of 147 °C. The Ki in data set [1] is more than 500 µM.

With `COC(=O)c1nc(N)sc1-c1ccc(S(C)(=O)=O)cc1` [Compound 14, Methyl-2-amino-5-(4-(methylsulfonyl)phenyl)thiazole-4-carboxylate], the melting point is 260 °C. The Ki in data set [1] is more than 500 µM.

Compound `COc1cc(C(=O)O)ccc1O` [Vanillic acid, reference compound] came in with a Ki in data set [1] of 6.8 µM.

In turn, `Nc1nc(C(=O)O)c(-c2ccc(Cl)c([N+](=O)[O-])c2)s1` [Compound 15a, 2-Amino-5-(4-chloro-3-nitrophenyl)thiazole-4-carboxylic acid] yielded a melting point of 163 °C. In addition, the Ki in data set [1] came out at 81.2 µM.

In turn, `COC(=O)c1nc(NC(=O)c2ccc(OC)cc2)sc1-c1ccc(S(C)(=O)=O)cc1` [Compound 14b, Methyl-2-(4-methoxybenzamido)-5-(4-(methylsulfonyl)phenyl)thiazole-4-carboxylate] gave a melting point of 239 °C. In data set [1], this compound registered a Ki of more than 500 µM.
